According to PMC6121244, “Differences in Functional Expression of Connexin43 and NaV1.5 by Pan- and Class-Selective Histone Deacetylase Inhibition in Heart” (International Journal of Molecular Sciences, 2018):
Like-named read-outs stand apart in the source and are kept apart here.

Columns and labels:
HDAC7 [1] = target: HDAC7; design: method as in PMID 20139990; conditions: cited from earlier work
[2] = test system: ventricular gap junction conductance (gj), Cx43-mediated; experiment: Gap junction conductance (gj), dual whole cell patch clamp on NMVM cell pairs; assay type: cell-based, mouse
Method: Final DMSO levels were <0.005% (vol/vol).
Gap junction currents (Ij) were recorded in the dual whole cell configuration according to previously published methods. Upon establishing a dual whole cell patch, Ij was recorded using a 30 s, 20 mV trans-junctional voltage protocol. All dual whole cell current recordings were low-pass filtered at 500 Hz and digitized at 2 KHz using pClamp 8.2 and graphical analysis performed using Origin 7.5 or 8.6 software as previously described.

HDAC2 = target: HDAC2; design: method as in PMID 20139990; conditions: cited from earlier work
HDAC1 [3] = target: HDAC1; design: method as in PMID 20139990; conditions: cited from earlier work
HDAC5 = target: HDAC5; design: method as in PMID 20139990; conditions: cited from earlier work
[4] = test system: cardiac sodium current (INa) in NMVMs, primarily NaV1.5; design: method as in PMID 27638876; conditions: previous experiments ref 13; cited from earlier work
[5] = test system: total HDAC activity in cultured neonatal mouse ventricular cardiomyocytes; conditions: NMVMs, cited from earlier work; for C1, decay constant of first exponential component of HDAC inhibition curve / C2, decay constant of second exponential component of HDAC inhibition curve: double exponential fit
HDAC9 = test system: HDAC9; design: method as in PMID 17868033; conditions: >100,000 = incomplete inhibition at 100 μM; cited from earlier work
HDAC8 [6] = test system: HDAC8; design: method as in PMID 17868033; conditions: >100,000 = incomplete inhibition at 100 μM; cited from earlier work
HDAC7 [7] = test system: HDAC7; design: method as in PMID 17868033; conditions: >100,000 = incomplete inhibition at 100 μM; cited from earlier work
HDAC1 [8] = test system: HDAC1; design: method as in PMID 17868033; conditions: >100,000 = incomplete inhibition at 100 μM; cited from earlier work
HDAC3 = test system: HDAC3; design: method as in PMID 17868033; conditions: >100,000 = incomplete inhibition at 100 μM; cited from earlier work
[9] = test system: NaV1.5 protein expression in NMVMs; experiment: Western blot of NaV1.5 protein level; assay type: cell-based, mouse; conditions: 24 h
IK,to and IK,ss in NMVMs = experiment: Transient and steady state outward K+ currents, whole cell patch clamp
[10] = test system: HeLa nuclear extract HDAC activity; design: method as in PMID 17455259; conditions: incomplete inhibition; cited from earlier work
[11] = test system: acetyl-α-tubulin and acetyl-histone 3; experiment: Western blot of acetylation markers; conditions: 1 μM MS-275, 24 h
late INa in NMVMs = experiment: Late INa, whole cell patch clamp; assay type: cell-based, mouse
Excerpt: Increases in late or persistent INa have been linked to cardiac arrhythmias and heart failure. […] . Subsequently, we modified a voltage clamp ramp protocol designed to generate late INa I–V relationships. […] .

[12] = test system: total HDAC activity in cultured neonatal mouse ventricular cardiomyocytes; experiment: Fluor de Lys total HDAC activity assay in cultured ventricular cardiomyocytes; assay type: cell-based; conditions: NMVMs, 18–24 h treatment; for C1, decay constant of first exponential component of HDAC inhibition curve / C2, decay constant of second exponential component of HDAC inhibition curve: double exponential fit
Method: Neonatal mice born from an inbred C57BL/6 mouse colony were anesthetized using isoflurane and the hearts were excised in accordance with procedures approved by the SUNY Upstate Medical University Institutional Animal Care and Use Committee (IACUC) # 263 on 15 March 2017. The excised hearts were separated into atria and ventricles and exposed to collagenase solution for digestion. The dissociated cells were pre-plated for 30 min to reduce fibroblast content by differential adhesion and the supernatant was collected, centrifuged and re-suspended in 1 mL/heart of M199/10% FBS culture media. The primary cells were plated into 96-well plates for HDAC activity assays, 35 mm culture dishes for patch clamp electrophysiology, or 60 mm culture dishes and homogenized after 3 days for Western blots.
Aliquots of 2 × 10^5 ventricular myocytes per well (96-well plate) were grown in 200 μL of 200 μM bromodeoxyuridine (BrDU)/M199, exchanged daily. Cell densities were counted with a hemocytometer and seeded into the wells. Wells were incubated with 2000 pmoles of the acetylated Fluor-de-Lys® substrate for 8 h during HDAC inhibition. […]

HDAC1 [13] = test system: HDAC1
HDAC8 [14] = test system: HDAC8; design: method as in PMID 17455259; conditions: cited from earlier work
[15] = test system: Cx43 protein expression in NMVMs; experiment: Western blot of Cx43 protein level; assay type: cell-based, mouse; conditions: 24 h
[16] = test system: cardiac sodium current (INa) in NMVMs, primarily NaV1.5; experiment: Cardiac sodium current (INa) density and Vm-dependent gNa activation/inactivation, whole cell patch clamp; assay type: cell-based, mouse; conditions: 18–24 h
Excerpt: Since both the activation and inactivation of INa are dependent on the membrane potential (Vm), we calculated the normalized Na^+ conductance (gNa) by dividing the average peak INa by the difference between Vm and the reversal potential (Erev) for INa, and then divided the gNa value for each Vm by the maximum gNa value for each experiment. The gNa–Vm curves were fit with a Boltzmann function gNa= gNamax+ (gNa− gNamax)/[1+exp((Vm− V1/2)/dVm)] using Origin 8.6. […] Final DMSO levels were <0.005% (vol/vol).

HDAC4 = test system: HDAC4; design: method as in PMID 17868033; conditions: >100,000 = incomplete inhibition at 100 μM; cited from earlier work
HDAC1 [17] = conditions: read-out: IC50 HDAC1, cited from earlier work
HDAC6 = conditions: cited from earlier work
[18] = adjusted values from published data ref 14
[19] = read-out: IC50(2), low affinity site, total HDAC activity, IC50 = 0.693·C2
[20] = adjusted values from published data ref 13
[21] = 25, 100, 500, 2500 nM panobinostat, p < 0.05

For `O=C(CCCCCCC(=O)Nc1ccc([C@H]2O[C@@H](CSc3nc(-c4ccccc4)c(-c4ccccc4)o3)C[C@@H](c3ccc(CO)cc3)O2)cc1)NO` [Tubacin, tubacin], the Ki (HDAC7 [1]) is listed as 8.5 ± 1.5 µM, the increase in gj ([2]; 10 μM tubacin alone) is listed as 9% and the effect on gj ([2]; 20 μM tubacin, highest tested dose) is listed as “slight decrease”. For the same molecule, the effect on gj ([2]; increasing concentrations of tubacin) was “non-significant increase and then decrease in gj with increasing concentration”, the Ki (HDAC2) was 0.042 ± 0.0035 µM and the Ki (HDAC1 [3]) was 0.028 ± 0.004 µM. The Ki (HDAC5) was 1.5 ± 0.25 µM.
For `C/C=C1\NC(=O)[C@H]2CSSCC/C=C/[C@H](CC(=O)N[C@H](C(C)C)C(=O)N2)OC(=O)[C@H](C(C)C)NC1=O` [FK228, romidepsin], the “positive shift in half activation voltage (V½)” value [4] is listed as “+2 to +8 mV”, the “shift in Vm-dependent gNa inactivation curve” value [4] is listed as “no shift” and the “C1, decay constant of first exponential component of HDAC inhibition curve” value (“C1, decay constant … of HDAC inhibition curve” below) [5, 18] is listed as 7.9 ± 0.9 nM. The “C2, decay constant of second exponential component of HDAC inhibition curve” value (shortened to “C2, decay constant … of HDAC inhibition curve”) [5, 18] was 2524 ± 678 nM, the IC50 ([5]; adjusted values from published data ref 14, read-out: IC50(1), high affinity site, total HDAC activity) was 0.0055 ± 0.0006 µM and the IC50 ([5]; adjusted values from published data ref 14, read-out: IC50(2), low affinity site, total HDAC activity) was 1.75 ± 0.47 µM.
For `CCCC(CCC)C(=O)O` [VPA, valproic acid], the IC50 (HDAC9) is listed as over 100 µM, the IC50 (HDAC8 [6]) is listed as 7440 µM and the IC50 (HDAC7 [7]) is listed as over 100 µM. The IC50 (HDAC1 [8]) was 1580 µM and the IC50 (HDAC3) was 3070 µM.
For `Nc1ccccc1NC(=O)c1ccc(CNC(=O)OCc2cccnc2)cc1` [Entinostat, entinostat], the NaV1.5 protein level ([9]; 1 μM entinostat) is given as “no significant changes”, the “transient outward and steady state K+ currents” value (IK,to and IK,ss in NMVMs; 1 μM MS275, 24 h) is given as “no si gni ficant chang es” and the IC50 (HDAC9) is given as […]. The IC50 [10] was 11 µM, the IC50 (HDAC8 [6]) was […] and the “Ac-H3 and Ac-α-tubulin signals” value [11] was “only increased the Ac-H3 signal”. The “effect on late INa current density” value (late INa in NMVMs; 1 μM entinostat 18–24 h, Vm ramp) was “no increase in late INa”, the “effect on ventricular gj” value ([2]; 5 μM entinostat, 18–24 h) was “significant reduction in gj” and the “C1, decay constant … of HDAC inhibition curve” value [12] was 629 ± 166 nM. For the same molecule, the “C2, decay constant … of HDAC inhibition curve” value [12] was 12,926 ± 3655 nM, the IC50 ([12]; read-out: IC50(1), high affinity site, total HDAC activity, IC50 = 0.693·C1) was 0.436 ± 0.115 µM and the IC50 [12, 19] was 8.96 ± 2.53 µM. For the same molecule, the “preferential inhibition of HDAC1 over other HDACs” value (HDAC1 [13]) was 10–100 fold, the IC50 (HDAC8 [14]) was […] and the Cx43 protein level ([15]; 1 μM entinostat) was “no significant changes”. The “effect on peak Na+ current density” value ([16]; 1 μM entinostat) was “no significant effect”, the IC50 (HDAC4) was […] and the IC50 (HDAC1 [17]) was […]. The IC50 (HDAC1 [17]; text statement) was […].
For `CCCC(=O)[O-].[Na+]` [NaB, sodium butyrate], the “activity against the class IIb HDAC6” value (HDAC6) is listed as “no activity”, the increase in gj ([2]; 5 mM NaB alone) is listed as 26% and the effect on gj ([2]; increasing concentrations of NaB) is listed as “non-significantly increased gj in a concentration-dependent manner”.
For `O=C(CCCCCCC(=O)Nc1ccccc1)NO` [VOR, suberoylanilide hydroxamic acid], the “C1, decay constant … of HDAC inhibition curve” value [5, 20] is listed as 140 ± 30 nM and the “C2, decay constant … of HDAC inhibition curve” value [5, 20] is listed as 1086 ± 312 nM.
In the case of `CC(/C=C/C(=O)NO)=C\[C@@H](C)C(=O)c1ccc(N(C)C)cc1` [TSA, Trichostatin A], the “positive shift in half activation voltage (V½)” value [4] is given as “+2 to +8 mV”, the “shift in Vm-dependent gNa inactivation curve” value [4] is given as “no shift” and the “C1, decay constant … of HDAC inhibition curve” value [5, 20] is given as 10.6 ± 1.3 nM. For the same molecule, the “C2, decay constant … of HDAC inhibition curve” value [5, 20] was 258 ± 76 nM, the IC50 ([5]; adjusted values from published data ref 13, read-out: IC50(1), high affinity site, total HDAC activity) was 0.0073 ± 0.0009 µM and the IC50 ([5]; adjusted values from published data ref 13, read-out: IC50(2), low affinity site, total HDAC activity) was 0.179 ± 0.053 µM.
In the case of `Cc1[nH]c2ccccc2c1CCNCc1ccc(/C=C/C(=O)NO)cc1` [Panobinostat, panobinostat], the NaV1.5 protein level [9, 21] is given as “concentration-dependent decrease”, the “transient outward and steady state K+ currents” value (IK,to and IK,ss in NMVMs; 100 nM, 24 h) is given as “No signifi cant changes” and the IC50 (HDAC8 [6]) is given as […]. The “effect on late INa” value (late INa in NMVMs; 100 or 500 nM panobinostat overnight, average current 100 to 150 msec) was “no difference in late INa”, the IC50 (HDAC6; >100,000 = incomplete inhibition at 100 μM) was […] and the “amplitude of exponential fit of decline in gj” value ([2]; 18–24 h, exponential fit) was 48.5. The “exponential decay constant of concentration-dependent decline in gj” value ([2]; 18–24 h, exponential fit) was […], the “effect on ventricular gj” value ([2]; 100, 500 or 1000 nM panobinostat, 18–24 h) was “significant dose-dependent decrease” and the “C1, decay constant … of HDAC inhibition curve” value [12] was 57.4 ± 22.2 nM. For the same molecule, the “C2, decay constant … of HDAC inhibition curve” value [12] was 2959 ± 838 nM, the IC50 ([12]; IC50 = 0.693·C1, listed as LBH589, read-out: IC50(1), high affinity site, total HDAC activity) was 0.0398 ± 0.0154 µM and the IC50 ([12]; IC50 = 0.693·C1, read-out: IC50(1), high affinity site, total HDAC activity) was about 0.04 µM. The IC50 [12, 19] was about 2 µM, the IC50 ([12]; read-out: IC50(2), low affinity site, total HDAC activity, IC50 = 0.693·C2, listed as LBH589) was 2.05 ± 0.581 µM and the IC50 (HDAC3) was […]. For the same molecule, the Cx43 protein level [15, 21] was “concentration-dependent decrease”, the “effect on peak cardiac Na+ current density” value ([16]; 100 or 500 nM panobinostat) was “decreased the cardiac sodium current density in a dose-dependent manner” and the IC50 (HDAC4) was […].
